Assay results as given in PMC6691788, “Design and synthesis of phthalazine-based compounds as potent anticancer agents with potential antiangiogenic activity via VEGFR-2 inhibition” (Journal of Enzyme Inhibition and Medicinal Chemistry, 2019).

Experiments:
NCI-H226 = test: NCI 60 cell panel SRB screen; type: cell-based; settings: Homo sapiens; NCI-H226, single dose 10 μM; read-out: percent cell growth promotion
RPMI-8226 = test: NCI 60 cell panel SRB screen; type: cell-based; settings: Homo sapiens; RPMI-8226, single dose 10 μM; read-out: percent cell growth promotion
NCI-H522 = test: NCI 60 cell panel SRB screen; type: cell-based; settings: Homo sapiens; NCI-H522, single dose 10 μM; read-out: percent cell growth promotion
ACHN = test: NCI 60 cell panel SRB screen; type: cell-based; settings: Homo sapiens, single dose 10 μM, read-out: percent cell growth promotion
OVCAR-8 = test: NCI 60 cell panel SRB screen; type: cell-based; settings: Homo sapiens; OVCAR-8, single dose 10 μM; read-out: percent cell growth promotion
T-47D = test: NCI 60 cell panel SRB screen; type: cell-based; settings: Homo sapiens, T47D, read-out: percent cell growth promotion
SNB-19 = test: NCI 60 cell panel SRB screen; type: cell-based; settings: Homo sapiens; SNB-19, single dose 10 μM; read-out: percent cell growth promotion
HCC-2998 = test: NCI 60 cell panel SRB screen; type: cell-based; settings: Homo sapiens; HCC-2998, single dose 10 μM; read-out: percent cell growth promotion
NCI/ADR-RES = test: NCI 60 cell panel SRB screen; type: cell-based; settings: Homo sapiens, single dose 10 μM, read-out: percent cell growth promotion
SF-295 = test: NCI 60 cell panel SRB screen; type: cell-based; settings: Homo sapiens; SF-295, single dose 10 μM; read-out: percent cell growth promotion
UO-31 = test: NCI 60 cell panel SRB screen; type: cell-based; settings: Homo sapiens; UO-31, single dose 10 μM; read-out: percent cell growth promotion
full NCI 60 cell panel = test: NCI 60 cell panel SRB screen, whole panel; type: cell-based, human; settings: for activity at 10 µM: Homo sapiens, 60 cell, mean over the panel, single dose 10 μM, read-out: Mean percent cell growth promotion; for cell growth inhibition, in words: single dose 10 µM
PC-3 = test: NCI 60 cell panel SRB screen; type: cell-based; settings: Homo sapiens; PC-3, single dose 10 μM; read-out: percent cell growth promotion
K-562 = test: NCI 60 cell panel SRB screen; type: cell-based; settings: Homo sapiens, K562; K-562, single dose 10 μM; read-out: percent cell growth promotion
A549/ATCC = test: NCI 60 cell panel SRB screen; type: cell-based; settings: Homo sapiens, single dose 10 μM, read-out: percent cell growth promotion
MDA-MB 231/ATCC = test: NCI 60 cell panel SRB screen; type: cell-based; settings: Homo sapiens, MDA-MB-231, read-out: percent cell growth promotion
MCF7 = test: NCI 60 cell panel SRB screen; type: cell-based; settings: Homo sapiens, MCF7, read-out: percent cell growth promotion
NCI-H23 = test: NCI 60 cell panel SRB screen; type: cell-based; settings: Homo sapiens; NCI-H23, single dose 10 μM; read-out: percent cell growth promotion
HOP-62 = test: NCI 60 cell panel SRB screen; type: cell-based; settings: Homo sapiens; HOP-62, single dose 10 μM; read-out: percent cell growth promotion

Row | SMILES | activity at 10 µM (NCI-H226) [%] | activity at 10 µM (RPMI-8226) [%] | activity at 10 µM (NCI-H522) [%] | activity at 10 µM (ACHN) [%] | activity at 10 µM (OVCAR-8) [%] | activity at 10 µM (T-47D) [%] | activity at 10 µM (SNB-19) [%] | activity at 10 µM (HCC-2998) [%] | activity at 10 µM (NCI/ADR-RES) [%] | activity at 10 µM (SF-295) [%] | activity at 10 µM (UO-31) [%] | activity at 10 µM (full NCI 60 cell panel) [%] | cell growth inhibition, in words (full NCI 60 cell panel) | activity at 10 µM (PC-3) [%] | activity at 10 µM (K-562) [%] | activity at 10 µM (A549/ATCC) [%] | activity at 10 µM (MDA-MB 231/ATCC) [%] | activity at 10 µM (MCF7) [%] | activity at 10 µM (NCI-H23) [%] | activity at 10 µM (HOP-62) [%]
1 | c1ccc(N2CCN(c3nncc4ccccc34)CC2)nc1 [Compound 8d, 1–(4-(Pyridin-2-yl)piperazin-1-yl)phthalazine] | 98.1 | 107 | 99.4 | 115 | 97.8 | 101 | 113 | 117 | 109 | 107 | 96 | 104 | nor the piperazines (8a, 8d, 8f, 8g, 8h and 8i) showed any significant cell line growth inhibition | 101 | 106 | 100 | 108 | 105 | 105 | 110
2 | CCOC(=O)N1CCN(c2nnc(C)c3ccccc23)CC1 [Compound 8f, Ethyl 4–(4-methylphthalazin-1-yl)piperazine-1-carboxylate] | 103 | 96.9 | 93.8 | 107 | 102 | 87.2 | 107 | 99.8 | 109 | 94.2 | 92.2 | 101 | nor the piperazines (8a, 8d, 8f, 8g, 8h and 8i) showed any significant cell line growth inhibition | 101 | 100 | 94.1 | 114 | 92.1 | 104 | 100
3 | Cc1nnc(N2CCN(c3ccccc3)CC2)c2ccccc12 [Compound 8g, 1-Methyl-4–(4-phenylpiperazin-1-yl)phthalazine] | 95.2 | 104 | 94.5 | 100 | 97.1 | 90.5 | 105 | 109 | 107 | 96 | 108 | 102 | nor the piperazines (8a, 8d, 8f, 8g, 8h and 8i) showed any significant cell line growth inhibition | 99.4 | 116 | 99.3 | 127 | 96.7 | 103 | 97.1
